Laboratory results reported in patent US8119681B2, “2-[1-phenyl-5-hydroxy or methoxy-4alpha-methyl-hexahydrocyclopenta [ƒ]indazole-5-YL]ethyl phenyl derivatives as glucocorticoid receptor ligands” (Merck Sharp & Dohme Corp., priority 2006, dated 2012).

Each compound was assayed against T1, human GR (Homo sapiens, UniProt P04150) (assay: Transrepression Assay (GITAR), TNFα-β-lactamase reporter gene in U937 cells). Conditions: U-937, read-out: maximal activity in the transrepression assay.
T1 sequence (P04150 1-777): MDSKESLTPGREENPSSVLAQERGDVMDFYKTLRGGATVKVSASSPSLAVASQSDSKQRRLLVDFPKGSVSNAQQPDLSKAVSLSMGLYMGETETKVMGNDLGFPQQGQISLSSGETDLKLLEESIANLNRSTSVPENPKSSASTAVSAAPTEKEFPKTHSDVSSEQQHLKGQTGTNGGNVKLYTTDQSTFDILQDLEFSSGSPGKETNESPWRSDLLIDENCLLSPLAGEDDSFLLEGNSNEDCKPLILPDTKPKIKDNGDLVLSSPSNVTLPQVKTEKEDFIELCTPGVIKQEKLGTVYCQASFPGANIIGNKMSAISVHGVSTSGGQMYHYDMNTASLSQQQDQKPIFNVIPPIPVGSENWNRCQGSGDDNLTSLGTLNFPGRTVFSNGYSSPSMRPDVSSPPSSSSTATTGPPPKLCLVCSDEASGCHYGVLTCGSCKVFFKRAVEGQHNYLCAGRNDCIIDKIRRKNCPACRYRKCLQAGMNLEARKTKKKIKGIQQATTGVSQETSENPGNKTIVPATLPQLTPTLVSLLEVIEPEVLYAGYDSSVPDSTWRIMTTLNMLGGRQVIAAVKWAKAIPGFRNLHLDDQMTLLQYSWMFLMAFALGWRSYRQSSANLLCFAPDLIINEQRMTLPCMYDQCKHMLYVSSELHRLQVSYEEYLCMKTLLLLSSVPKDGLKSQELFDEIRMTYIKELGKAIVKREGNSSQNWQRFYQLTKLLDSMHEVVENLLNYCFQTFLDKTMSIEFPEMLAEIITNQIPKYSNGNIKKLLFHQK
Type: cell-based
Design: U937 cells contain an endogenous glucocorticoid receptor (GR); endogenous in cells; host or cells: U937 cells stably transfected with the TNF-α promoter/β-lactamase reporter only
Outline: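 Reporter readout used CCF2-AM loading for 70–90 min at room temperature after overnight (~18 h, 37 °C) PMA (5 ng/ml final) and LPS (100 ng/ml final) stimulation of compound-treated (30–45 min) TNFα-β-lactamase U937 cells expressing native GR. Activity was normalised to 100 nM dexamethasone repression.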

Q: Which Emax does the source give for `C[C@]12Cc3cnn(-c4ccc(F)cc4)c3C=C1CC[C@@]2(O)CCc1ccccc1C(O)(C(N)=O)C1CC1` (stereo partly drawn) [Example 200, 2-cyclopropyl-2-(2-{2-[(4αS,5R)-1-(4-fluorophenyl)-5-hydroxy-4α-methyl-1,4,4α,5,6,7-hexahydrocyclopenta[f]indazol-5-yl]ethyl}phenyl)-2-hydroxyacetamide] here?
A: The Emax was 5 to 100%.

Same assay, conditions: U-937; 100 nM dexamethasone = 100% activity; read-out: maximal activity in the transrepression assay

Q: `C[C@]12Cc3cnn(-c4ccc(F)cc4)c3C=C1CC[C@@]2(O)CCc1cc(C(F)(F)F)ccc1C(N)=O` [Example 173, 2-{2-[(4α6,5R)-1-(4-fluorophenyl)-5-hydroxy-4α-methyl-1,4,4α,5,6,7-hexahydrocyclopenta[f]indazol-5-yl]ethyl}-4-(trifluoromethyl)benzamide] was tested. Which Emax did it give?
A: Its Emax is 5 to 100%.

Q: Which Emax does the source give for `C[C@]12Cc3cnn(-c4ccc(F)cc4)c3C=C1CC[C@@]2(O)CCc1ccc(C(F)(F)F)cc1C(N)=O` [Example 175, 2-{2-[(4αS,5R)-1-(4-fluorophenyl)-5-hydroxy-4α-methyl-1,4,4α,5,6,7-hexahydrocyclopenta[f]indazol-5-yl]ethyl}-5-(trifluoromethyl)benzamide] here?
A: The Emax was 5 to 100%.

Q: How did the Emax turn out when `C[C@]12Cc3cnn(-c4ccc(F)c(F)c4)c3C=C1CC[C@@]2(O)CCc1cccc(Cl)c1C(N)=O` [Example 176, 2-chloro-6-{2-[(4αS,5R)-1-(3,4-difluorophenyl)-5-hydroxy-4α-methyl-1,4,4α,5,6,7-hexahydrocyclopenta[f]indazol-5-yl]ethyl}benzamide] was run?
A: The Emax was 5 to 100%.

Q: Which Emax does the source give for `C[C@]12Cc3cnn(-c4ccc(F)c(F)c4)c3C=C1CC[C@@]2(O)CCc1cc(Cl)ccc1C(N)=O` [Example 177, 4-chloro-2-{2-[(4αS,5R)-1-(3,4-difluorophenyl)-5-hydroxy-4α-methyl-1,4,4α,5,6,7-hexahydrocyclopenta[f]indazol-5-yl]ethyl}benzamide] here?
A: Its Emax is 5 to 100%.

Q: `C[C@]12Cc3cnn(-c4ccc(F)cc4)c3C=C1CC[C@@]2(O)CCc1cc(F)c(F)cc1C(N)=O` [Example 178, 4,5-difluoro-2-{2-[(4αS,5R)-1-(4-fluorophenyl)-5-hydroxy-4α-methyl-1,4,4α,5,6,7-hexahydrocyclopenta[f]indazol-5-yl]ethyl}benzamide] was tested. Which Emax did it give?
A: Its Emax is 5 to 100%.

Q: For `CO[C@@]1(CCc2ccc(C(F)(F)F)cc2C(N)=O)CCC2=Cc3c(cnn3-c3ccc(F)cc3)C[C@@]21C` [Example 179, 2-{2-[(4αS,5R)-1-(4-fluorophenyl)-5-methoxy-4α-methyl-1,4,4α,5,6,7-hexahydrocyclopenta[f]indazol-5-yl]ethyl}-5-(trifluoromethyl)benzamide], which Emax is on record?
A: Its Emax is 5 to 100%.

Q: For `C[C@]12Cc3cnn(-c4ccc(F)cc4)c3C=C1CC[C@@]2(O)CCc1ccc(C#N)cc1C(N)=O` [Example 180, 5-cyano-2-{2-[(4αS,5R)-1-(4-fluorophenyl)-5-hydroxy-4α-methyl-1,4,4α,5,6,7-hexahydrocyclopenta[f]indazol-5-yl]ethyl}benzamide], which Emax is on record?
A: The Emax was 5 to 100%.

Q: `Cc1ccc(CC[C@]2(O)CCC3=Cc4c(cnn4-c4ccc(F)cc4)C[C@@]32C)c(C(N)=O)c1` [Example 181, 2-{2-[(4αS,5R)-1-(4-fluorophenyl)-5-hydroxy-4α-methyl-1,4,4α,5,6,7-hexahydrocyclopenta[f]indazol-5-yl]ethyl}-5-methylbenzamide] was tested. Which Emax did it give?
A: The Emax was 5 to 100%.

Q: For `Cc1cccc(CC[C@]2(O)CCC3=Cc4c(cnn4-c4ccc(F)cc4)C[C@@]32C)c1C(N)=O` [Example 182, 2-{2-[(4αS,5R)-1-(4-fluorophenyl)-5-hydroxy-4α-methyl-1,4,4α,5,6,7-hexahydrocyclopenta[f]indazol-5-yl]ethyl}-6-methylbenzamide], which Emax is on record?
A: Its Emax is 5 to 100%.

Q: With `C[C@]12Cc3cnn(-c4ccc(F)cc4)c3C=C1CC[C@@]2(O)CCc1ccc(F)c(F)c1C(N)=O` [Example 183, 2,3-difluoro-6-{2-[(4αS,5R)-1-(4-fluorophenyl)-5-hydroxy-4α-methyl-1,4,4α,5,6,7-hexahydrocyclopenta[f]indazol-5-yl]ethyl}benzamide] as the compound, how does the Emax read?
A: Its Emax is 5 to 100%.

Q: How did the Emax turn out when `C[C@]12Cc3cnn(-c4ccc(Cl)cc4)c3C=C1CC[C@@]2(O)CCc1ccccc1C(N)=O` [Example 184, 2-{2-[(4αS,5R)-1-(4-chlorophenyl)-5-hydroxy-4α-methyl-1,4,4α,5,6,7-hexahydrocyclopenta[f]indazol-5-yl]ethyl}benzamide] was run?
A: The Emax was 5 to 100%.

Q: Which Emax does the source give for `Cc1cccc(CC[C@]2(O)CCC3=Cc4c(cnn4-c4ccc(F)c(F)c4)C[C@@]32C)c1C(N)=O` [Example 186, 2-{2-[(4αS,5R)-1-(3,4-difluorophenyl)-5-hydroxy-4α-methyl-1,4,4α,5,6,7-hexahydrocyclopenta[f]indazol-5-yl]ethyl}-6-methylbenzamide] here?
A: The Emax was 5 to 100%.

Q: Which Emax does the source give for `C[C@]12Cc3cnn(-c4cccc(F)c4)c3C=C1CC[C@@]2(O)CCc1ccccc1C(N)=O` [Example 187, 2-{2-[(4αS,5R)-1-(3-fluorophenyl)-5-hydroxy-4α-methyl-1,4,4α,5,6,7-hexahydrocyclopenta[f]indazol-5-yl]ethyl}benzamide] here?
A: Its Emax is 5 to 100%.

Q: For `C[C@]12Cc3cnn(-c4ccc(F)cc4)c3C=C1CC[C@@]2(O)CCc1cccc(C(F)(F)F)c1C(N)=O` [Example 188, 2-{2-[(4αS,5R)-1-(4-fluorophenyl)-5-hydroxy-4α-methyl-1,4,4α,5,6,7-hexahydrocyclopenta[f]indazol-5-yl]ethyl}-6-(trifluoromethyl)benzamide], which Emax is on record?
A: The Emax was 5 to 100%.

Q: For `C[C@]12Cc3cnn(-c4ccc(F)cc4)c3C=C1CC[C@@]2(O)CCc1ccc(-c2ccccc2)cc1C(N)=O` [Example 190, 4-{2-[(4αS,5R)-1-(4-fluorophenyl)-5-hydroxy-4α-methyl-1,4,4α,5,6,7-hexahydrocyclopenta[f]indazol-5-yl]ethyl}biphenyl-3-carboxamide], which Emax is on record?
A: Its Emax is 5 to 100%.

Q: For `C[C@]12Cc3cnn(-c4ccc(F)cc4)c3C=C1CC[C@@]2(O)CCc1ccccc1C(O)C(N)=O` (stereo partly drawn) [Example 192, 2-(2-{2-[(4αS,5R)-1-(4-fluorophenyl)-5-hydroxy-4α-methyl-1,4,4α,5,6,7-hexahydrocyclopenta[f]indazol-5-yl]ethyl}phenyl)-2-hydroxyacetamide], which Emax is on record?
A: The Emax was 5 to 100%.

Q: How did the Emax turn out when `C[C@]12Cc3cnn(-c4ccc(F)cc4)c3C=C1CC[C@@]2(O)CCc1cc(F)ccc1CC(N)=O` [Example 193, 2-(4-fluoro-2-{2-[(4αS,5R)-1-(4-fluorophenyl)-5-hydroxy-4α-methyl-1,4,4α,5,6,7-hexahydrocyclopenta[f]indazol-5-yl]ethyl}phenyl)acetamide] was run?
A: Its Emax is 5 to 100%.

Q: For `C[C@]12Cc3cnn(-c4ccc(F)c(F)c4)c3C=C1CC[C@@]2(O)CCc1ccccc1CC(N)=O` [Example 195, 2-(2-{2-[(4αS,5R)-1-(3,4-difluorophenyl)-5-hydroxy-4α-methyl-1,4,4α,5,6,7-hexahydrocyclopenta[f]indazol-5-yl]ethyl}phenyl)acetamide], which Emax is on record?
A: Its Emax is 5 to 100%.
